The record followed here is ChEMBL document CHEMBL1147581, “Development of novel lipid-peptide hybrid compounds with antibacterial activity from natural cationic antibacterial peptides” (Bioorg Med Chem Lett, 2004).

≈ marks a conversion by molar mass, not a printed value. Calls of active or inactive are those of the source. The rule behind the calls is not given here. Non-standard residues stand in square brackets, D forms with d. Residues, ends and D or L forms follow the SMILES beside them. *: point of attachment. Palmitoleoyl = CCCCCC/C=C\CCCCCCCC(=O)*; PhAc = O=C(Cc1ccccc1)*; Bz = O=C(c1ccccc1)*; Ahx = NCCCCCC(=O)O

For data set [1], the system named is Candida albicans. Put plainly: Minimum inhibitory concentration against Candida albicans ATCC 36232; NA = not active. In kind it is functional, organism-based.
Data set [2] has as its system Escherichia coli. Put plainly: Minimum inhibitory concentration against Escherichia coli ATCC 25922; NA = not active. It counts as functional, organism-based.
A short description of data set [3]: Minimum inhibitory concentration against Micrococcus luteus ATCC 9341. It counts as functional.
The species entered for data set [4] is Mus musculus. Put plainly: Concentration required for half-maximal lysis of mouse erythrocytes. It counts as functional.
Data set [5] has as its system Pseudomonas aeruginosa. Put plainly: Minimum inhibitory concentration against Pseudomonas aeruginosa ATCC 9027; NA = not active. It counts as functional, organism-based.
Another data set relates to Staphylococcus aureus. Put plainly: Minimum inhibitory concentration against Staphylococcus aureus ATCC 6538. In kind it is functional.
Data set [6] concerns Candida albicans. Put plainly: Minimum inhibitory concentration against Candida albicans ATCC 36232. It counts as functional.
Data set [7] deals with Escherichia coli. Description: Minimum inhibitory concentration against Escherichia coli ATCC 25922. In kind it is functional.
For data set [8], the species on record is Mus musculus. Put plainly: Concentration required for half-maximal lysis of mouse erythrocytes; NA = not active. In kind it is functional, organism-based.
In data set [9] the test system is Pseudomonas aeruginosa. Put plainly: Minimum inhibitory concentration against Pseudomonas aeruginosa ATCC 9027. In kind it is functional.
A short description of data set [10]: Stability of the peptide in the presence of mouse serum. It counts as ADME, organism-based.

Take `CCCCCC/C=C\CCCCCCCC(=O)N[C@@H](Cc1ccc(O)cc1)C(=O)N[C@@H](CS)C(=O)N[C@@H](CC(N)=O)C(=O)NCC(=O)N[C@@H](CCCCN)C(=O)N[C@@H](CCCN=C(N)N)C(=O)N[C@H](C(=O)N[C@@H](CS)C(=O)N[C@H](C(=O)N[C@@H](CS)C(=O)N[C@@H](CCCN=C(N)N)C(N)=O)C(C)C)C(C)C` (Palmitoleoyl-YCNGKRVCVCR-NH2): the MIC result in the data set with Candida albicans [1], in the data set on Escherichia coli [2] and in the data set with Pseudomonas aeruginosa [5] was “inactive” throughout. Further, the MIC (in data set [3]; in the data set with Staphylococcus aureus) was greater than 100 µg/mL each time. In the data set filed under Mus musculus [4], this compound registered an HD50 greater than 100 µg/mL.
`CC[C@H](C)[C@H](NC(=O)CN)C(=O)NCC(=O)N[C@@H](CCCCN)C(=O)N[C@@H](Cc1ccccc1)C(=O)N[C@@H](CC(C)C)C(=O)N[C@@H](Cc1c[nH]cn1)C(=O)N[C@@H](CO)C(=O)N[C@@H](C)C(=O)N[C@@H](CCCCN)C(=O)N[C@@H](CCCCN)C(=O)N[C@@H](Cc1ccccc1)C(=O)NCC(=O)N[C@@H](CCCCN)C(=O)N[C@@H](C)C(=O)N[C@@H](Cc1ccccc1)C(=O)N[C@H](C(=O)NCC(=O)N[C@@H](CCC(=O)O)C(=O)N[C@H](C(=O)N[C@@H](CCSC)C(=O)N[C@@H](CC(N)=O)C(=O)N[C@@H](CO)C(=O)O)[C@@H](C)CC)C(C)C` [MAGAININ 2] (H-GIGKFLHSAKKFGKAFVGEIMNS-OH): the minimal inhibitory concentration (MIC) with Candida albicans [6] turned out to be 50 µg/mL (≈ 20.3 µM); against Escherichia coli [7], 20 µg/mL (≈ 8.11 µM); in data set [3], 50 µg/mL (≈ 20.3 µM); against Pseudomonas aeruginosa [9], 20 µg/mL (≈ 8.11 µM); against Staphylococcus aureus, 40 µg/mL (≈ 16.2 µM). Moreover, the HD50 result in the data set listed under Mus musculus [8] is “inactive”.
`CC[C@H](C)[C@H](NC(=O)[C@H](Cc1ccc(O)cc1)NC(=O)[C@H](CCCCN)NC(=O)[C@@H](N)CCCCN)C(=O)N[C@@H](CCCCN)C(=O)N[C@H](C(=O)N[C@@H](Cc1ccccc1)C(=O)N[C@H](C(=O)N[C@@H](Cc1ccccc1)C(=O)N[C@@H](CCCCN)C(N)=O)C(C)C)C(C)C` (H-KKYIKVFVFK-NH2): the half-life in data set [10] was found to be 8 min. The same compound yielded a minimal inhibitory concentration (MIC) with Staphylococcus aureus of 6.3 µg/mL (≈ 4.85 µM).
Turning to `CC(=O)NCCCCCC(=O)N[C@@H](Cc1ccc(O)cc1)C(=O)N[C@@H](CS)C(=O)N[C@@H](CC(N)=O)C(=O)NCC(=O)N[C@@H](CCCCN)C(=O)N[C@@H](CCCN=C(N)N)C(=O)N[C@H](C(=O)N[C@@H](CS)C(=O)N[C@H](C(=O)N[C@@H](CS)C(=O)N[C@@H](CCCN=C(N)N)C(N)=O)C(C)C)C(C)C` (Ac-[Ahx]YCNGKRVCVCR-NH2), the MIC result with Candida albicans [1], in the data set on Escherichia coli [2] and in the data set with Pseudomonas aeruginosa [5] was “inactive” throughout. Also, the minimum inhibitory concentration (MIC) (in data set [3]; against Staphylococcus aureus) was greater than 100 µg/mL throughout. The HD50 in the data set filed under Mus musculus [4] was greater than 100 µg/mL.
With `CC[C@H](C)[C@H](NC(=O)CN)C(=O)NCC(=O)N[C@@H](C)C(=O)N[C@H](C(=O)N[C@@H](CC(C)C)C(=O)N[C@@H](CCCCN)C(=O)N[C@H](C(=O)N[C@@H](CC(C)C)C(=O)N[C@H](C(=O)N[C@H](C(=O)NCC(=O)N[C@@H](CC(C)C)C(=O)N1CCC[C@H]1C(=O)N[C@@H](C)C(=O)N[C@@H](CC(C)C)C(=O)N[C@H](C(=O)N[C@@H](CO)C(=O)N[C@@H](Cc1c[nH]c2ccccc12)C(=O)N[C@H](C(=O)N[C@@H](CCCCN)C(=O)N[C@@H](CCCNC(=N)N)C(=O)N[C@@H](CCCCN)C(=O)N[C@@H](CCCNC(=N)N)C(=O)N[C@@H](CCC(N)=O)C(=O)N[C@@H](CCC(N)=O)C(N)=O)[C@@H](C)CC)[C@@H](C)CC)[C@@H](C)O)[C@@H](C)O)C(C)C)C(C)C` [MELITTIN], the minimum inhibitory concentration (MIC) came out at 1.56 µg/mL (≈ 0.548 µM) against Candida albicans [6] and 0.78 µg/mL (≈ 0.274 µM) in data set [3]. Moreover, the HD50 entry in the data set filed under Mus musculus [8] was “inactive”.
With `CC[C@H](C)[C@H](NC(=O)[C@H](Cc1ccc(O)cc1)NC(=O)[C@H](CCCCN)NC(=O)[C@H](CCCCN)NC(C)=O)C(=O)N[C@@H](CCCCN)C(=O)N[C@H](C(=O)N[C@@H](Cc1ccccc1)C(=O)N[C@H](C(=O)N[C@@H](Cc1ccccc1)C(=O)N[C@@H](CCCCN)C(N)=O)C(C)C)C(C)C` (Ac-KKYIKVFVFK-NH2), the half-life in data set [10] was found to be 30 min. 100 µg/mL (≈ 74.6 µM) was the least that counted as inhibitory in the data set with Staphylococcus aureus (MIC).
Turning to `CC[C@H](C)[C@H](NC(=O)[C@H](Cc1ccc(O)cc1)NC(=O)[C@H](CCCCN)NC(=O)[C@H](CCCCN)NC(=O)c1ccccc1)C(=O)N[C@@H](CCCCN)C(=O)N[C@H](C(=O)N[C@@H](Cc1ccccc1)C(=O)N[C@H](C(=O)N[C@@H](Cc1ccccc1)C(=O)N[C@@H](CCCCN)C(N)=O)C(C)C)C(C)C` (Bz-KKYIKVFVFK-NH2), the half-life in data set [10] was 30 min.
`CC[C@H](C)[C@H](NC(=O)[C@H](Cc1ccc(O)cc1)NC(=O)[C@H](CCCCN)NC(=O)[C@H](CCCCN)NC(=O)CCCCCNC(C)=O)C(=O)N[C@@H](CCCCN)C(=O)N[C@H](C(=O)N[C@@H](Cc1ccccc1)C(=O)N[C@H](C(=O)N[C@@H](Cc1ccccc1)C(=O)N[C@@H](CCCCN)C(N)=O)C(C)C)C(C)C` (Ac-[Ahx]KKYIKVFVFK-NH2): the half-life in [10] was found to be 45 min. This compound also returned a minimal inhibitory concentration (MIC) with Staphylococcus aureus of 6.3 µg/mL (≈ 4.33 µM).
With `CC(C)[C@H](NC(=O)[C@H](CS)NC(=O)[C@@H](NC(=O)[C@H](CCCN=C(N)N)NC(=O)[C@H](CCCCN)NC(=O)CNC(=O)[C@H](CC(N)=O)NC(=O)[C@H](CS)NC(=O)[C@H](Cc1ccc(O)cc1)NC(=O)Cc1ccccc1)C(C)C)C(=O)N[C@@H](CS)C(=O)N[C@@H](CCCN=C(N)N)C(N)=O` (PhAc-YCNGKRVCVCR-NH2), the MIC result with Candida albicans [1], in the data set with Escherichia coli [2] and in the data set on Pseudomonas aeruginosa [5] was “inactive” each time. Moreover, the minimum inhibitory concentration (MIC) in data set [3] was greater than 100 µg/mL; against Staphylococcus aureus, 100 µg/mL (≈ 70.5 µM). The HD50 in the data set listed under Mus musculus [4] is greater than 100 µg/mL.
As for `CC(C)[C@H](NC(=O)[C@H](CS)NC(=O)[C@@H](NC(=O)[C@H](CCCN=C(N)N)NC(=O)[C@H](CCCCN)NC(=O)CNC(=O)[C@H](CC(N)=O)NC(=O)[C@H](CS)NC(=O)[C@H](Cc1ccc(O)cc1)NC(=O)CCCCCN)C(C)C)C(=O)N[C@@H](CS)C(=O)N[C@@H](CCCN=C(N)N)C(N)=O` (H-[Ahx]YCNGKRVCVCR-NH2), the MIC result with Candida albicans [1], with Escherichia coli [2] and in the data set with Pseudomonas aeruginosa [5] was “inactive” in each case. The minimal inhibitory concentration (MIC) (in data set [3]; in the data set with Staphylococcus aureus) was 50 µg/mL (≈ 35.4 µM) throughout. Moreover, the HD50 in the data set listed under Mus musculus [4] was greater than 100 µg/mL.
As for `CC(=O)N[C@@H](Cc1ccc(O)cc1)C(=O)N[C@@H](CS)C(=O)N[C@@H](CC(N)=O)C(=O)NCC(=O)N[C@@H](CCCCN)C(=O)N[C@@H](CCCN=C(N)N)C(=O)N[C@H](C(=O)N[C@@H](CS)C(=O)N[C@H](C(=O)N[C@@H](CS)C(=O)N[C@@H](CCCN=C(N)N)C(N)=O)C(C)C)C(C)C` (Ac-YCNGKRVCVCR-NH2), the MIC entry in the data set on Candida albicans [1], in the data set with Escherichia coli [2] and with Pseudomonas aeruginosa [5] was “inactive” throughout. In addition, the minimal inhibitory concentration (MIC) in [3] stood at 100 µg/mL (≈ 74.5 µM); in the data set with Staphylococcus aureus, 50 µg/mL (≈ 37.3 µM). Besides, in the data set listed under Mus musculus [4], the HD50 is greater than 100 µg/mL.
